This is an account of results in patent US11458201B2, “Mucosal active agent delivery” (Suda Ltd., priority 2016, dated 2022).

Structures are written as SMILES. Where a name gives a salt, the structure may show the parent alone. Read-outs that look alike come from different tables or passages of the source.

For series [1] the following is noted: cited from earlier work; for logP: as listed in table of actives by hydrotrope class; for log P: list of suitable active agents.
A short description of series [2]: In vitro single hydrotrope permeability experiments, coated artificial membranes (Franz cell). It counts as in vitro ADME. The method, then:
The solutions thus contain the exact same concentration of active agent in the presence or absence of hydrotrope. The samples may then be tested for permeability through an artificial membrane under identical conditions so that the effect of the hydrotrope on the permeability of the active can be assessed.
Regenerated cellulose membrane filters are coated with lecithin in dodecane for permeation experiments. […] Air bubbles are removed before donor chamber is clamped. The filter is incubated for 1 h and any excess lecithin solution is then removed. All samples are continuously stirred on a magnetic plate at 300 rpm for duration of pre-incubation and subsequent permeation experiment.
After membrane preparation and equilibration, 240 uL each of formulation at buffer pH 6.8 are added to the donor chamber.

The next series relates to porcine buccal mucosa. Briefly: Ex vivo permeability experiments, porcine buccal membranes in Franz cells. In kind it is in vitro ADME, domestic pigs (Sus scrofa domestica). The method, then:
Buccal tissue from domestic pigs (Sus scrofa domestica) were obtained from a local abattoir directly after slaughter and immediately placed on ice. Within 2 hours of collection, tissue is prepared for delivery experiments. For permeation experiments tissue is placed in pH 6.8 PBS and epithelium separated from the connective tissue using surgical dissection or by contact in solution (pH 6.8 PBS) heated to 65° C. for 60 seconds. Surgical dissection is preferred method for maintaining intact epithelia with minimal impact on integrity which can occur with heating. After isolation, tissue is placed on Franz cell receiver chamber filled with PBS at pH optimised for permeant solubility and containing micro-stirring bar. Air bubbles are removed before donor chamber is clamped. The exposed epithelial surface is pre-incubated in pH 6.8 PBS in air incubator heated to 37° C. for minimum 15 minutes to equilibrate to temperature. All samples are continuously stirred on a magnetic plate at 300 rpm for duration of pre -incubation and subsequent permeation experiment. After equilibration, the donor chamber buffer is removed by pipette and replaced with active agent solution to be tested. […] At time 0 samples of 200 ul is removed from receiver chamber and 200 ul volume replaced with buffer. Samples taken at timed intervals (standard 15, 30, 60 minutes) are 200 ul volumes removed from side arm of receiver chamber using gel-loading pipette tips. Removed samples are placed in HPLC tubes for HPLC analysis. After each sample is taken the 200 ul volume is replaced with PBS […] buffer to maintain constant volume in receiver chamber (which will dilute slightly each subsequent sample).

A short description of series [3]: In vivo studies in rabbits, buccal administration, blood PK. More on the design: species or system rabbits (Oryctolagus cuniculus) New Zealand White. The note with it: rabbit, buccal single dose 20 mg, 2.5% caffeine and 7.5% nicotinamide (F4) in comparison to the Base formulation, FIG. 14. As for the experimental part: Ten male rabbits (Oryctolagus cuniculus) Strain New Zealand White (NZW) aged 8-12 weeks were delivered 5 days prior to the experiment for acclimatisation. The animals were kept in a controlled environment (targeted ranges: temperature 21±3° C., humidity 30-70%), with a light/dark cycle each of 12 hours, and under barrier (quarantine) conditions. Temperature and relative humidity was monitored continuously throughout the study duration. Feed consisted of Rabbit and Guinea Pig pellets. Municipal town water was supplied ad libitum. Dietary enrichment was provided during the acclimation period in the form of fresh fruit and vegetables. Enrichment items were not provided following randomisation into study groups and during dose administration.
Prior to dose administration, a total of ten male NZW rabbits were randomized into two groups of five based on body weight. Each animal group was allocated to receive a different sildenafil Formulation (either sildenafil Formulation 4 (F4) or sildenafil Base formulation (see Example 2)). […]
Portions of whole blood (400 μL) were collected into K2EDTA blood tubes then centrifuged and the resulting […] prior to analysis by LC-MS/MS. Peak concentration in blood (Cmax), Time to reach Cmax (Tmax), half-life (t1/2) and area under curve (AUC) were calculated.

The mark [4] stands for this setting: as listed with results of FIGS. 3-9.
[5] abbreviates: formulated with Class A hydrotrope caffeine, sweeteners and flavours vs same formulation minus the hydrotrope content, FIG. 13.
Setting [6] is: single hydrotrope screen, formulation at buffer pH 6.8, same active concentration with and without hydrotrope.
The mark [7] stands for this setting: sildenafil citrate formulations containing hydrotropes (Table 4) vs Base, FIGS. 11A and 11B.

Usually logP stands for the decadic logarithm of the partition coefficient of the neutral form, usually between octanol and water. The log P is a log measure of how a compound divides between an organic and an aqueous phase. The log D is lipophilicity at a set pH, counting ionised and neutral species.

With `O=C(O)Cc1ccccc1Nc1c(Cl)cccc1Cl` [Diclofenac sodium, diclofenac sodium], in series [1] (hydroalcoholic solution), the “log P or log D” value was 4.75. Further, the “penetration through an artificial membrane in the presence of various hydrotropes (most effective hydrotrope)” value in series [2] (hydroalcoholic solution) was “caffeine most effective”.

Regarding `CN(C)CCOC(C)(c1ccccc1)c1ccccn1` (stereo not shown) [Doxylamine succinate, doxylamine succinate], the logP in series [1] is given as 2.96. Besides, the “log P or log D” value in series [1] (setting [4]) is 2.9. Moreover, in the series on porcine buccal mucosa (setting [5]), the early permeation result is recorded as “does not affect” and the total permeation result was “increases total permeation”. Further, the “penetration through an artificial membrane in the presence of various hydrotropes (most effective hydrotrope)” value in series [2] (setting [6]) was “benzoic acid most effective”.

Turning to `CC(C)Cc1ccc(C(C)C(=O)O)cc1` (stereo not shown) [Ibuprofen, ibuprofen], the “log P or log D” value in series [1] (setting [4]) is reported as 3.5. Besides, in series [2] (setting [6]), the “penetration through an artificial membrane in the presence of various hydrotropes (most effective hydrotrope)” value is “no improvement”.

Turning to `Cc1nccn1CC1CCc2c(c3ccccc3n2C)C1=O` (stereo not shown) [Ondansetron HCl, ondansetron hydrochloride], in series [1], the logP result was “Ondansetron HCl (logP 2.4” and the “log P” value was 2.4. In addition, the “log P or log D” value in series [1] (setting [4]) is recorded as 2.4. For the same compound, the “hydrotrope class giving the greatest increases in permeability” value in series [2] was “Class A hydrotropes”. Besides, the “penetration through an artificial membrane in the presence of various hydrotropes (most effective hydrotrope)” value in series [2] (setting [6]) was “nicotinamide or caffeine most effective”.

As for `CCCc1nn(C)c2c(=O)[nH]c(-c3cc(S(=O)(=O)N4CCN(C)CC4)ccc3OCC)nc12` [Sildenafil citrate, sildenafil citrate], in series [1] (pH 7), the “log D” value is reported as 1.6 and the “log P or log D” value was 1.6. For the same compound, the bioavailability of sildenafil entry in series [3] was “marked increase”.

Regarding `CNS(=O)(=O)Cc1ccc2[nH]cc(CCN(C)C)c2c1` [Sumatriptan succinate, sumatriptan succinate], in series [1], the logP entry is on record as “Sumatriptan succinate (logP 0.93” and the “log P” value is 0.93. Further, in series [1] (setting [4]), the “log P or log D” value is on record as 1.7. Besides, the “log D” value in series [1] (pH 6) is reported as 1.7. Besides, the “penetration through an artificial membrane in the presence of various hydrotropes (most effective hydrotrope)” value in series [2] (setting [6]) is given as “benzoic acid most effective”.

With `Cc1ccc(-c2nc3ccc(C)cn3c2CC(=O)N(C)C)cc1` [Zolpidem tartrate, zolpidem tartrate], in series [1], the logP result is given as “Zolpidem tartrate (logP 1.2” and the “log P” value is given as 1.2. Also, the “log P or log D” value in series [1] (setting [4]) is 1.2. For the same compound, the “penetration through an artificial membrane in the presence of various hydrotropes (most effective hydrotrope)” value in series [2] (setting [6]) is “citric acid most effective”.

On to `Cn1c(=O)c2c(ncn2C)n(C)c1=O` [caffeine], for which, in the series with porcine buccal mucosa (setting [7]), the “effect on early permeation” value was “limited effect” and the “effect on total permeation” value was “increases total permeation”.
